The target of assay [1] is Glutamate receptor 3 (Rattus norvegicus, UniProt P19492).
Assay [2] concerns the target Glutamate receptor ionotropic, kainate 1 (Rattus norvegicus, UniProt P22756).
Assay [3] deals with Glutamate receptor ionotropic, NMDA 1 (Rattus norvegicus, UniProt P35439).

Broadly, the Ki is a measure of affinity in units of concentration, obtained from inhibition or displacement. A higher Ki goes with lower affinity.

Sequence of Glutamate receptor 3 (P19492 whole entry): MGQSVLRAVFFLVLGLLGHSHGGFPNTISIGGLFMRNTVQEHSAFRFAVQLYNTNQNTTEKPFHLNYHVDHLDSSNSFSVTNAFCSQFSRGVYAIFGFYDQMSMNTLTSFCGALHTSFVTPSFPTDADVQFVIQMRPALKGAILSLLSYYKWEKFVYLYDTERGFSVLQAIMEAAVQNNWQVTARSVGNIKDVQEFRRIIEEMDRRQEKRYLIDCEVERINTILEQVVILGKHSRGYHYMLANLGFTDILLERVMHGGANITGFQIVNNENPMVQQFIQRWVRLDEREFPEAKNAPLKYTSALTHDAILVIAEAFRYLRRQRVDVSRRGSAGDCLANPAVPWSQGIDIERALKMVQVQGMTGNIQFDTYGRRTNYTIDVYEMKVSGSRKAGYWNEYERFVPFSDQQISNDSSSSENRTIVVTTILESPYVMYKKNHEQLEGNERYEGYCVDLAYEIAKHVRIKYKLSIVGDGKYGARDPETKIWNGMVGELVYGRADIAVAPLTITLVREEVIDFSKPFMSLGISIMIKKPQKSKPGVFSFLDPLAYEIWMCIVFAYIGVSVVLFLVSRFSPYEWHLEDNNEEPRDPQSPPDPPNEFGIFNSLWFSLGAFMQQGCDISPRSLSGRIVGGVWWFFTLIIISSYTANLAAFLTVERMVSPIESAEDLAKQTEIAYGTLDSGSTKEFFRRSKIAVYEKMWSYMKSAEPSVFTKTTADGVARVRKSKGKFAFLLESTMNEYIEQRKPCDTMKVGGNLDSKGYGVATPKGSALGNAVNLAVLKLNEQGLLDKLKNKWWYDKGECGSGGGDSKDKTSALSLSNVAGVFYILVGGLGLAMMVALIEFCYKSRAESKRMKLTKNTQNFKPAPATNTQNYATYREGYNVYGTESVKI
Sequence of Glutamate receptor ionotropic, kainate 1 (P22756 whole entry): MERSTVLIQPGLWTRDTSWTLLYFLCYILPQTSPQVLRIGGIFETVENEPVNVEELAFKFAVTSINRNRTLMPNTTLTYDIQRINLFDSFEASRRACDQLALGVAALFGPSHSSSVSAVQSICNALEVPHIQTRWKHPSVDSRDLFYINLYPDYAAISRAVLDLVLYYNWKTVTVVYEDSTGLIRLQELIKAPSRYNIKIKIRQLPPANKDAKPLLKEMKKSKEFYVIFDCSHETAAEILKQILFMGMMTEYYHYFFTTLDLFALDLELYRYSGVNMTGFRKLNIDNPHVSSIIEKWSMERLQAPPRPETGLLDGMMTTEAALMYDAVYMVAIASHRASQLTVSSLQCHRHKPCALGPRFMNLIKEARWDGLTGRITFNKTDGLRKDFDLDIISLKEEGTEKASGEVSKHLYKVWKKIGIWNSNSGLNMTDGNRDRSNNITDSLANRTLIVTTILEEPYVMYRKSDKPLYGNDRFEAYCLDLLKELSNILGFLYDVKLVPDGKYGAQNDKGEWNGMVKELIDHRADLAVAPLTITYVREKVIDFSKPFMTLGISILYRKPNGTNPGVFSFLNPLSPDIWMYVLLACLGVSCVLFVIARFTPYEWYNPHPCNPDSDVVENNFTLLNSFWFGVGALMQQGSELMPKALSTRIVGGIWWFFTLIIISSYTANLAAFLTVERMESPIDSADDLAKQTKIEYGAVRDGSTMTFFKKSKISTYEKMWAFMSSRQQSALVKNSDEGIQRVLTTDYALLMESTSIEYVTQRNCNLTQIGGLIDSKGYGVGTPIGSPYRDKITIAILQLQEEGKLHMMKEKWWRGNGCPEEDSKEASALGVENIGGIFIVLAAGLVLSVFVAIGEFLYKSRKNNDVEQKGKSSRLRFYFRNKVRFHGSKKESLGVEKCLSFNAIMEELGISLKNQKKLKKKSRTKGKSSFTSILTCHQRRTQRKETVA

Compound `CC(C)(C)c1o[nH]c(=O)c1C[C@H](N)C(=O)O` [ATPA-R] returned a Ki in assay [1] above 10 µM.
`CC(C)(C)c1o[nH]c(=O)c1C[C@@H](N)C(=O)O` [ATPA-S]: in assay [1], the Ki is 1.8 µM.
`CC(C)(C)c1onc(O)c1CC(N)C(=O)O` (stereo not given) [NSC_2253] gave a Ki in assay [1] above 10 µM.
On to `CC(C)(C)c1snc(O)c1CC(N)C(=O)O` (stereo not given) [Thio-ATPA-S], for which the Ki in assay [2] and in assay [3] was above 10 µM each time.

These data come from BindingDB's records for doi:10.1016/s0014-2999(00)00916-x (The Royal Danish School of Pharmacy, 2001).
